According to patent US20040053826A1, “Uses of polypeptides” (priority 2000, published 2004):
Bridge positions count the residues as written; N and C are the ends. Ends that are not written are not given here.

How the values were obtained:
Wistar male rats [1] = assay: Locomotion measurement: effects of diazepam on locomotion induced by intraventricular polypeptide (SEQ ID NO: 9) or PACAP38; format: in vivo, rat
Source text: (§1) Each of Wistar male rats (8 weeks old) was anesthetized with pentobarbital and fixed on a stereotaxic apparatus. A guide cannula (AG-8, Eicom) was inserted into the lateral ventricle of each rat (AP: +8.1 mm, L: 1.8 mm, H: +7.1 mm). The rats were then allowed to recover for at least one week before the experiment. During the recovery period, handling was made every day to reduce stresses resulting from intraventricular administration.
(§2) The cannulated rats were transferred to a locomotion testing system (Supermex, Muromachi Kikai Co., Ltd.) and acclimatized overnight. The rats were transferred from the locomotion testing system and subcutaneously administered with diazepam (1 mg/kg). An hour later, the rats were intraventricularly administered with the polypeptide (SEQ ID NO: 9; 10 nmol) or PACAP38 (3 nmol) dissolved in phosphate buffered saline (PBS) at a flow rate of 2.5 μl/min for 4 minutes. Immediately after the administration, the rats were returned to the locomotion testing system and tested for their spontaneous locomotion (FIG. 4).

C57BL/6N mice [2] = assay: Hole board test; format: in vivo, mouse; conditions: 0.1, 0.3 or 3 nmol into the lateral ventricle, 30 minutes after administration, over 5 minutes
Procedure: A polyvinyl chloride box having 4 holes (diameter: 3.8 cm) at its bottom was used as a hole board. Locomotion on the hole board was measured with a Supermex sensor (Muromachi Kikai Co., Ltd.). To measure the number of head dippings, MRS-110RX infrared-scanning sensors (Muromachi Kikai Co., Ltd.) were provided immediately below the respective holes.
(§3) After C57BL/6N mice were acclimatized in the laboratory, PBS containing the polypeptide (SEQ ID NO: 9; 0.1 nmol, 0.3 nmol or 3 nmol) or PBS alone was administered in a volume of 5 μl into the lateral ventricle of each mouse using a double-needle (Matsumoto Seisakusho) under ether anesthesia. Thirty minutes after the administration, each mouse was placed in the center of the hole board and tested over 5 minutes for locomotion and the number of head dippings.

Wistar male rats [3] = assay: Locomotion measurement (spontaneous locomotion and number of rearings) after administration into the lateral ventricle; format: in vivo, rat
Source text: as §1, with “Wistar” for “Each of Wistar”, “rats (9” for “rats (8”, “old) were” for “old) was”, “and” for “and fixed on”, “a” for “a stereotaxic apparatus. A”
On the day before the experiment, the rats were transferred to a locomotion testing system for acclimation purposes. Under unanesthetized and unrestrained conditions, a microinjection cannula was attached to the guide cannula through which each rat was administered with the polypeptide (SEQ ID NO: 9; 10 nmol) dissolved in phosphate buffered saline (PBS) or PBS alone at a rate of 5 μl/min for 2 minutes. Immediately after the administration, the rats were returned to the locomotion testing system (Supermex, Muromachi Kikai Co., Ltd.) and tested for their spontaneous locomotion and the number of rearings (FIG. 1).
Wistar male rats (9 weeks old) were anesthetized with pentobarbital and a guide cannula (AG-8, Eicom) was inserted into the lateral ventricle of each rat (AP: 8.1 mm, L: 1.8 mm, H: 7.1 mm). The rats were then allowed to recover for at least one week before the experiment. During the recovery period, handling was made every day to reduce stresses resulting from intraventricular administration.
On the day before the experiment, the rats were transferred to a locomotion testing system for acclimation purposes. Under unanesthetized and unrestrained conditions, a microinjection cannula was attached to the guide cannula through which each rat was administered with the polypeptide (SEQ ID NO: 9; 1 nmol) dissolved in PBS or PBS alone in a volume of 10 μl (5 μl/min for 2 minutes). Immediately after the administration, the rats were returned to the locomotion testing system (Supermex, Muromachi Kikai Co., Ltd.) and tested for their spontaneous locomotion and the number of rearings (FIG. 2).
as §1
as §2, with “and” for “and subcutaneously administered with diazepam (1 mg/kg). An hour later, the rats were”, “9; 1 nmol or” for “9;”, “10” for “10 nmol) or PACAP38 (3”, “(PBS) or PBS alone” for “(PBS)”, “5” for “2.5”, “and the number of rearings.” for “(FIG. 4).”

C57BL/6N mice [4] = assay: Elevated plus maze test; format: in vivo, mouse; conditions: for (Open arm entries)/(open arm entries + closed arm entries): 30 minutes after administration, tested over 5 minutes
Source text: An acrylic maze having 4 arms (25 cm long, 8 cm wide) placed in the shape of a cross (elevated plus maze) was positioned in a sound-proof chamber under low illumination (0.5 lux). Two opposite arms of the elevated plus maze were enclosed by walls (closed arms) and the other two arms were wall-less (open arms). The maze was elevated 25 cm above the floor (FIG. 5).
as §3, with “9; 1” for “9; 0.1 nmol, 0.3”, “placed on” for “placed in”, “the elevated plus maze” for “the center of the hole board”, “for” for “for locomotion and”, “of entries into each arm and the time spent on open arms.” for “of head dippings.”

[5] = Example 1, 10 nmol into the lateral ventricle
[6] = Example 2, 1 nmol into the lateral ventricle
[7] = Example 3, 10 nmol intraventricularly

For `CN1C(=O)CN=C(c2ccccc2)c2cc(Cl)ccc21` [Diazepam, diazepam], the “effect on the increase in locomotion induced by PACAP38” value (Wistar male rats [1]; diazepam 1 mg/kg subcutaneously 1 hour before PACAP38 3 nmol intraventricularly) was “dose not affect” and the “effect on the increase in locomotion induced by the polypeptide (SEQ ID NO: 9)” value (Wistar male rats [1]; diazepam 1 mg/kg subcutaneously 1 hour before polypeptide (SEQ ID NO: 9) 10 nmol intraventricularly) was “significantly inhibits”.

“PACAP38: PACAP38 known to have the ability to increase locomotion (HSDGIFTDSYSRYRKQMAVKKYLAAVLGKRYKQRVKNK; ends and bridges not checked; UniProt P18509 132-169, looked up)” was tested, and the spontaneous locomotion (Wistar male rats [1]; PACAP38 3 nmol intraventricularly) was “increase in locomotion”.

With “polypeptide (SEQ ID NO: 9): bovine SENR ligand peptide; the 6th and 11th cysteine residues form an intramolecular disulfide bond (GPSSECFWKYCV; disulfide 6-11)” the “locomotion on the hole board” value (C57BL/6N mice [2]) was “no change”, the “number of head dippings” value (C57BL/6N mice [2]) was “significant decrease” and the “locomotion after the initial decrease” value (Wistar male rats [3]; [5]) was “increase in their locomotion”. The number of rearings (Wistar male rats [3]; [5]) was “same effects as found in spontaneous locomotion”, the “spontaneous locomotion immediately after the administration, as compared with the control rats” value (Wistar male rats [3]; [5]) was “tended to decrease” and the “inhibition against a transient increase in locomotion as observed in 10 nmol administration” value (Wistar male rats [3]; [6]) was “did not show such an inhibition”. For the same compound, the “locomotion from immediately after the administration” value (Wistar male rats [3]; [6]) was “increase in their locomotion”, the “locomotion and the number of rearings from immediately after the administration” value (Wistar male rats [3]; Example 3, 1 nmol intraventricularly) was “increases” and the “duration of the decreases in locomotion and number of rearings” value (Wistar male rats [3]; [7]) was “about 10 minutes”. For the same compound, the “duration of the increase in locomotion” value (Wistar male rats [3]; [7]) was “about 1 hour”, the “locomotion and the number of rearings immediately after the administration” value (Wistar male rats [3]; [7]) was “decreases” and the “locomotion following the transient decrease” value (Wistar male rats [3]; [7]) was “increase in locomotion”. The number of rearings (Wistar male rats [3]; Example 3, 10 nmol intraventricularly, less significant tendency to increase) was 51.0±13.4 times/90 min, the “(Open arm entries)/(open arm entries + closed arm entries)” value (C57BL/6N mice [4]; 1 nmol into the lateral ventricle, n=20) was 0.131 ± 0.009 and the “probability to select open arms” value (C57BL/6N mice [4]; 1 nmol or 3 nmol into the lateral ventricle) was “reduced”. For the same compound, the “(Open arm entries)/(open arm entries + closed arm entries)” value (C57BL/6N mice [4]; 3 nmol into the lateral ventricle, n=20, *p < 0.05, Dunnett) was 0.065 ± 0.018*.
